Source: PubChem BioAssay AID2060359 (Molecular Pharmacology Branch, DTP, NCI, 2025)
Several values for one entry are separate records, joined by “and”; a condition that tells them apart may be missing. Equal values may be shown once.

Test system: 276233-004-R-J1-PDC spheroids with HUVEC/MSC, viability
Test: Anticancer human tumor 276233-004-R-J1-PDC patient-derived colon adenocarcinoma cell line growth inhibition [TAK]
Settings: for viability, T/C: stronger effect = lower value; active = viability on the fitted dose curve at most 10% of control; inactive = the rest
Description: Combinatorial screen of targeted agents with TAK-243 and ipatasertib in multi-cell type tumor spheroids
A high-throughput screen of multi-cell type tumor spheroids was designed to identify active combinations of targeted small molecules and TAK-243 or ipatasertib. Complex spheroids include a stromal component modeled by human endothelial cells (HUVEC) and fibroblasts modeled by human mesenchymal stem cells (MSCs). The concentration ranges selected for each drug and investigational agent were based upon clinically achievable concentrations if the clinical Cmax of the agent was known.
Compounds. The drugs and investigational agents: TAK-243 (785004), ipatasertib (767898), everolimus (733504), selumetinib (741078), bortezomib (756655), trametinib (758246), ixazomib (758254), vemurafenib (761431), dabrafenib (764134), sapanisertib (764658), alpelisib (765974), and copanlisib (816437), were obtained from the National Cancer Institute (NCI) Developmental Therapeutics Program Chemical Repository. The FDA-approved anticancer drug set is available from the NCI Developmental Therapeutics Program. […] The stock solutions were prepared in dimethyl sulfoxide (DMSO, Sigma-Aldrich, St. Louis, MO, cat. D2650) at 800-fold the tested concentration and stored at -70 degrees C prior to their use. All drugs and investigational agents were tested over a range starting from a high concentration at or near the clinical Cmax and decreasing in half-log increments. If the clinical Cmax for an agent had not been determined, the highest concentration tested was 10 microM.
NCI60 Cell Culture. NCI60 cell lines were obtained from the NCI Developmental Therapeutics Program Tumor Repository. For each lot of cells, the Repository performed Applied Biosystems AmpFLSTR Identifiler testing with PCR amplification to confirm consistency with the published Identifier STR profile for each cell line. Cells were kept in continuous culture for no more than 20 passages. The optimal seeding densities for each of the cell lines at each time point assessed were determined prior to performing the concentration response studies. Briefly, the NCI60 human tumor lines were grown as monolayers in RPMI 1640 medium supplemented with 10% FBS and 2 mmol/L L-glutamine.
An additional 2 lines were from the NCI60 cell line panel including melanomas, MALME-3M and SK-MEL-2. Pooled donor human umbilical vein endothelial cells (HUVEC, Lonza, cat. CC-2519) and human mesenchymal stem cells (hMSC, Lonza, cat. PT-2501) were purchased from Lonza (Walkersville, MD).
PDMR cell lines were grown in complete medium (DC medium): Dulbecco's modified Eagle's medium (DMEM)/F12 supplemented with 5% fetal bovine serum (FBS), 2 mM L-glutamine, 100 U/mL penicillin and 100 µg/ml streptomycin, 0.4 µg/ml hydrocortisone, 10 ng/ml epidermal growth factor (EGF) recombinant human protein, 24 µg/mL adenine, and 0.1 mg/mL primocin. During culture from frozen stock vials, PDMR cells were cultured in the same medium containing 10 µM Y-27632 (see Table 3). The PDCs were cultured in complete DMEM/F12 media without 10 microM Y-27632 dihydrochloride for at least two passages prior to the screen. The pooled donor HUVEC and hMSC were cultured in endothelial cell growth medium 2 (PromoCell, Heidelberg, Germany, cat. C-22011) and mesenchymal stem cell growth medium 2 (PromoCell, cat. C-28009), respectively. For all experiments, HUVEC and hMSC were used at passages </=5.
For the pre-screen, cell seeding densities were determined from a titration spanning the range from 5,000 to 313 cells per well. The mct-spheroids including 60% malignant cells, 25% HUVEC and 15% MSC dispensed as a mixture into U-bottom Ultra-Low Attachment 384-well plates (Corning, NY)
High-throughput Drug Combination Screening.
Prior to their inoculation into 384-well plates, malignant cells, HUVEC, and hMSC were removed from T flasks using TrypLE express (Thermo Fisher Scientific, cat. 12605036) and harvested by centrifugation for 5 min at 233 x g. […]

[1] = curve of first compound, second compound 0.3 µM
[2] = curve of first compound, second compound 0.949 µM
[3] = curve of first compound, second compound 3 µM
[4] = curve of first compound, second compound 9.49 µM
[5] = curve of first compound, second compound 30 µM
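Note: spheroids exposed to drugs for seven days before the viability read.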

COc1c(OCCCN2CCOCC2)ccc2c3n(c(=NC(=O)c4cnc(N)nc4)nc12)CCN3 + CC(C)NCC(C(=O)N1CCN(c2ncnc3c2C(C)CC3O)CC1)c1ccc(Cl)cc1
inactive: viability, T/C (second compound 0.3 µM, first compound 0.00316 µM) 74.1% | viability, T/C (second compound 0.3 µM, first compound 0.01 µM) 78.6% | viability, T/C (second compound 0.3 µM, first compound 0.0316 µM) 49.7% | viability, T/C (second compound 0.3 µM, first compound 0.1 µM) 41.8% | viability, T/C (second compound 0.3 µM, first compound 0.316 µM) 43.7% | viability, T/C (second compound 0.3 µM, first compound 1 µM) 52.2% | viability, T/C (second compound 0.949 µM, first compound 0.00316 µM) 67% | viability, T/C (second compound 0.949 µM, first compound 0.01 µM) 59.8% | viability, T/C (second compound 0.949 µM, first compound 0.0316 µM) 51.5% | viability, T/C (second compound 0.949 µM, first compound 0.1 µM) 36.3% | viability, T/C (second compound 0.949 µM, first compound 0.316 µM) 37.6% | viability, T/C (second compound 0.949 µM, first compound 1 µM) 49.3% | viability, T/C (second compound 3 µM, first compound 0.00316 µM) 66.8% | viability, T/C (second compound 3 µM, first compound 0.01 µM) 53.3% | viability, T/C (second compound 3 µM, first compound 0.0316 µM) 46.8% | viability, T/C (second compound 3 µM, first compound 0.1 µM) 46% | viability, T/C (second compound 3 µM, first compound 0.316 µM) 41.5% | viability, T/C (second compound 3 µM, first compound 1 µM) 61.7% | viability, T/C (second compound 9.49 µM, first compound 0.00316 µM) 60.5% | viability, T/C (second compound 9.49 µM, first compound 0.01 µM) 48.3% | viability, T/C (second compound 9.49 µM, first compound 0.0316 µM) 52.5% | viability, T/C (second compound 9.49 µM, first compound 0.1 µM) 43% | viability, T/C (second compound 9.49 µM, first compound 0.316 µM) 44% | viability, T/C (second compound 9.49 µM, first compound 1 µM) 38.4% | viability, T/C (second compound 30 µM, first compound 0.00316 µM) 34% | viability, T/C (second compound 30 µM, first compound 0.01 µM) 34.5% | viability, T/C (second compound 30 µM, first compound 0.0316 µM) 33.2% | viability, T/C (second compound 30 µM, first compound 0.1 µM) 32.9% | viability, T/C (second compound 30 µM, first compound 0.316 µM) 25.9% | viability, T/C (second compound 30 µM, first compound 1 µM) 41.5%
29 nM: IC50 [2]
26.4 nM: IC50 [3]
31.3 nM: IC50 [1]
< 3.16 nM: IC50 [5]
21.5 nM: IC50 [4]

CC(C)(C)c1nc(-c2cccc(NS(=O)(=O)c3c(F)cccc3F)c2F)c(-c2ccnc(N)n2)s1
inactive: viability, T/C (compound 0.0316 µM) 93.4% and 107% | viability, T/C (compound 0.1 µM) 86.3% and 116% | viability, T/C (compound 0.316 µM) 113% and 106% | viability, T/C (compound 1 µM) 86.4% and 100% | viability, T/C (compound 3.16 µM) 77.2% and 58.5% | viability, T/C (compound 10 µM) 84.5% and 86.9%
> 10000 nM: IC50 (curve of compound)

CC(C)CC(NC(=O)C(Cc1ccccc1)NC(=O)c1cnccn1)B(O)O (stereo unspecified)
5.72 nM and 6.1 nM: IC50 (curve of compound)
inactive: viability, T/C (compound 31.6 pM) 107% and 98.8% | viability, T/C (compound 0.0001 µM) 88.1% and 105% | viability, T/C (compound 0.000316 µM) 97.6% and 93.5% | viability, T/C (compound 0.001 µM) 91.4% and 106% | viability, T/C (compound 0.00316 µM) 89.8% and 112% | viability, T/C (compound 0.01 µM) 12.6% and 10%

COC1CC2CCC(C)C(O)(O2)C(=O)C(=O)N2CCCCC2C(=O)OC(C(C)CC2CCC(OCCO)C(OC)C2)CC(=O)C(C)C=C(C)C(O)C(OC)C(=O)C(C)CC(C)C=CC=CC=C1C (stereo unspecified)
inactive: viability, T/C (compound 0.000316 µM) 107% and 100% | viability, T/C (compound 0.001 µM) 94.7% and 93.2% | viability, T/C (compound 0.00316 µM) 83.6% and 81.6% | viability, T/C (compound 0.01 µM) 78.3% and 67.6% | viability, T/C (compound 0.0316 µM) 77.4% and 80.3% | viability, T/C (compound 0.1 µM) 66.3% and 64.1%
> 100 nM: IC50 (curve of compound)

COc1c(OCCCN2CCOCC2)ccc2c3n(c(=NC(=O)c4cnc(N)nc4)nc12)CCN3
inactive: viability, T/C (compound 0.00316 µM) 82.5% and 97.5% | viability, T/C (compound 0.01 µM) 64.3% and 80.6% | viability, T/C (compound 0.0316 µM) 55.6% and 59.9% | viability, T/C (compound 0.1 µM) 50.8% and 57.9% | viability, T/C (compound 0.316 µM) 43.1% and 47.6% | viability, T/C (compound 1 µM) 47.2% and 63.4%

Cn1cnc2c(F)c(Nc3ccc(Br)cc3Cl)c(C(=O)NOCCO)cc21 + CC(C)NCC(C(=O)N1CCN(c2ncnc3c2C(C)CC3O)CC1)c1ccc(Cl)cc1
63.8 nM: IC50 [4]
361 nM: IC50 [2]
462 nM: IC50 [1]
9.49 nM: IC50 [5]
inactive: viability, T/C (second compound 0.3 µM, first compound 0.00949 µM) 79.5% | viability, T/C (second compound 0.3 µM, first compound 0.03 µM) 82.8% | viability, T/C (second compound 0.3 µM, first compound 0.0949 µM) 65.4% | viability, T/C (second compound 0.3 µM, first compound 0.3 µM) 52% | viability, T/C (second compound 0.3 µM, first compound 0.949 µM) 49.8% | viability, T/C (second compound 0.3 µM, first compound 3 µM) 38.5% | viability, T/C (second compound 0.949 µM, first compound 0.00949 µM) 73.6% | viability, T/C (second compound 0.949 µM, first compound 0.03 µM) 68.5% | viability, T/C (second compound 0.949 µM, first compound 0.0949 µM) 57.9% | viability, T/C (second compound 0.949 µM, first compound 0.3 µM) 52.2% | viability, T/C (second compound 0.949 µM, first compound 0.949 µM) 43.1% | viability, T/C (second compound 0.949 µM, first compound 3 µM) 33.3% | viability, T/C (second compound 3 µM, first compound 0.00949 µM) 67.2% | viability, T/C (second compound 3 µM, first compound 0.03 µM) 61.1% | viability, T/C (second compound 3 µM, first compound 0.0949 µM) 54.4% | viability, T/C (second compound 3 µM, first compound 0.3 µM) 42% | viability, T/C (second compound 3 µM, first compound 0.949 µM) 39.7% | viability, T/C (second compound 3 µM, first compound 3 µM) 31.4% | viability, T/C (second compound 9.49 µM, first compound 0.00949 µM) 64% | viability, T/C (second compound 9.49 µM, first compound 0.03 µM) 57.1% | viability, T/C (second compound 9.49 µM, first compound 0.0949 µM) 45.6% | viability, T/C (second compound 9.49 µM, first compound 0.3 µM) 40.4% | viability, T/C (second compound 9.49 µM, first compound 0.949 µM) 32.7% | viability, T/C (second compound 9.49 µM, first compound 3 µM) 28.9% | viability, T/C (second compound 30 µM, first compound 0.00949 µM) 50.1% | viability, T/C (second compound 30 µM, first compound 0.03 µM) 45.2% | viability, T/C (second compound 30 µM, first compound 0.0949 µM) 42.5% | viability, T/C (second compound 30 µM, first compound 0.3 µM) 52% | viability, T/C (second compound 30 µM, first compound 0.949 µM) 28.9% | viability, T/C (second compound 30 µM, first compound 3 µM) 33.1%
145 nM: IC50 [3]

CC(=O)Nc1cccc(-n2c(=O)n(C3CC3)c(=O)c3c(Nc4ccc(I)cc4F)n(C)c(=O)c(C)c32)c1
inactive: viability, T/C (compound 94.9 pM) 92.8% and 120% | viability, T/C (compound 0.0003 µM) 81.6% and 81.1% | viability, T/C (compound 0.000949 µM) 88.4% and 73.1% | viability, T/C (compound 0.003 µM) 70.1% and 70% | viability, T/C (compound 0.00949 µM) 61.6% and 54.3% | viability, T/C (compound 0.03 µM) 37.1% and 44.9%
15.7 nM and 29.7 nM: IC50 (curve of compound)

Cc1nc(NC(=O)N2CCCC2C(N)=O)sc1-c1ccnc(C(C)(C)C(F)(F)F)c1 (stereo unspecified)
inactive: viability, T/C (compound 0.0316 µM) 100% and 88.8% | viability, T/C (compound 0.1 µM) 89.7% and 95.4% | viability, T/C (compound 0.316 µM) 80% and 70.7% | viability, T/C (compound 1 µM) 61.8% and 64.2% | viability, T/C (compound 3.16 µM) 64% and 56.8% | viability, T/C (compound 10 µM) 42.8% and 50.4%
6270 nM and > 10000 nM: IC50 (curve of compound)
